Results from US9868730B2, “Kappa opioid receptor selective compounds, compositions, and uses thereof” (The Trustees of Columbia University in the City of New York, priority 2013, dated 2018).
“Also recorded” adds a separate entry of the source.

Tests used:
[1] = target: T1, KOP receptor (Homo sapiens, UniProt P41145); assay: G protein bias from BRET-based G protein activation and arrestin recruitment assays; assay type: cell-based
[2] = target: T2, DOP receptor (Homo sapiens, UniProt P41143); assay: Competitive inhibition of 3H-diprenorphine binding; details: 0.3 nM 3H-diprenorphine; means ± S.E.M. (n = 3)
Procedure: (§1) Two days after transfection with human KOP receptor and GαoB, HEK293T cells were lysed and membranes were prepared in HEPES buffer (NaCl 140 mM, KCl 5.4 mM, HEPES 25 mM, EDTA 1 mM, MgCl2 2 mM, BSA 0.006%, pH 7.4) using a Polytron homogenizer. Membranes were incubated with ^3H-diprenorphine (0.3 nM) (PerkinElmer, Waltham, Mass.) at room temperature for 1 hour in a final volume of 1 ml, in the absence or presence of various concentrations of each small-molecule selected from the virtual screening. Membranes were then harvested using a Brandel cell harvester through a Whatman FPD-24 934AH glass-fiber filter and washed three times with ice-cold wash Buffer (Tris-HCl 10 mM, NaCl 120 mM, pH 7.4). Non-specific binding was determined using 400 nM of NorBNI.
(§2) To assess the degree of selectivity of MCKK-4, MCKK-5, MCKK-13, MCKK-17R or MCKK-17S for the hKOP over the DOP and MOP receptors, competitive inhibition of ^3H-diprenorphine (0.3 nM) binding in the absence or presence of various concentrations of each molecule were performed, and their Ki values for each receptor were determined (Table 2 below).

[3] = target: T3, MOP receptor (Homo sapiens, UniProt P35372); assay: Competitive inhibition of 3H-diprenorphine binding; details: 0.3 nM 3H-diprenorphine; means ± S.E.M. (n = 3)
Procedure: as §1, §2

[4] = target: T1, KOP receptor; assay: Competitive inhibition of 3H-diprenorphine binding, membranes of transfected HEK293T cells; set-up: host or cells: HEK293T; details: for Ki / inhibition of 3H-diprenorphine binding: 0.3 nM 3H-diprenorphine; for Ki: means ± S.E.M. (n = 3), read-out: Ki KOP; for inhibition of 3H-diprenorphine binding: 100 μM compound, room temperature, 1 hour
Procedure: as §1
The primary experimental testing of MCKK-1-22 consisted of performing a competitive inhibition binding assay at the hKOP receptor. Membranes of HEK293T cells transfected with the hKOP receptor and GαoB were prepared and incubated with ^3H-diprenorphine (0.3 nM) in the absence or presence of 10 or 100 μM of each small-molecule from the virtual screening.
as §2

[5] = target: T1, KOP receptor; assay: BRET-based G protein (GαoB) activation assay in HEK293T cells; assay type: cell-based; set-up: host or cells: HEK293T; details: for agonistic activity at hKOP (G protein activation), in words: relative to EKC; for EC50: hKOP co-expressed with GαoB-RLuc8, β1, mVenus-γ2, read-out: potency (EC50) of GαoB activation at hKOP
From the text: (§3) The cDNAs for human KOP (hKOP) receptor and the G protein GαoB were obtained from the Missouri S&T cDNA Resource Center. For arrestin recruitment experiments, full-length Renilla luciferase 8 (RLuc8, provided by S. Gambhir) was fused in-frame to the C terminus of the hKOP receptor in the pcDNA3.1 vector. The following human G protein constructs were provided by C. Gales (Gales et al., 2006; Sauliere et al., 2012): GαoB with RLuc8 inserted at position 91 (GαoB-RLuc8); untagged Gβ1 (β1); untagged Gγ2 (γ2). The human γ2 subunit was fused to full-length mVenus at its N terminus (mVenus-γ2), and the fusion construct human arrestin3-mVenus was used as previously described (Klewe et al., 2008). All constructs were confirmed by sequencing analysis. A total of 20 μg of plasmid cDNA (e.g. 0.2 μg of hKOR-RLuc8, 15 μg of arrestin3-mVenus, and 4.8 μg of pcDNA3.1) was transfected into HEK-293T cells using polyethylenimine (Polysciences Inc., Warrington, Pa.) in a 1:3 ratio in 10-cm dishes. Cells were maintained in culture with DMEM supplemented with 10% FBS. The transfected ratio among receptor, Gα, β1, and γ2, or arrestin was optimized by testing various ratios of plasmids encoding the different sensors. Experiments were performed 48 hours after transfection.
(§4) BRET was performed as described (Guo et al., 2008). Briefly, two days after transfection, cells were harvested, washed, and re-suspended in a phosphate-buffered saline (PBS) solution. Approximately 200,000 cells/well were distributed in 96-well plates, and 5 μM coelenterazine H (luciferase substrate) was added to each well. Five minutes after the addition of coelenterazine H, ligands were added to each well, and after 2 minutes for G protein activation or 5 minutes for arrestin recruitment, the BRET signal was determined by quantifying and calculating the ratio of the light emitted by mVenus, the energy acceptor (510-540 nm), over that emitted by RLuc8, the energy donor (485 nm). The drug-induced BRET signal was normalized, taking the Emax of the ethylketocyclazocine (EKC)-induced response as 100%. To measure cAMP accumulation, a BRET-based cAMP in a previously described YFP-Epac-RLuc (CAMYEL) assay was used (Jiang et al., 2007). GαoB B, β1, and γ2 were co-expressed to enhance the signal-to-noise ratio, and the cells were treated for 5 minutes with 100 μM forskolin prior to stimulation (Jiang et al., 2007). The data were normalized and represented as the percentage of forskolin-stimulated cAMP accumulation with 0 defined as the maximal inhibition elicited by EKC.
To assess whether any of these molecules had agonistic activity, a BRET-based G protein activation assay where the hKOP receptor was co-expressed in HEK293T cells with GαoB-RLuc8, β1, and mVenus-γ2 was used. The drug-induced BRET signal is interpreted as a dissociation of and/or conformational change within the Gαβγ complex, and thus, as the activation of the co-expressed G protein.

[6] = target: T2, DOP receptor; assay: BRET-based G protein activation assay; assay type: cell-based; set-up: expressed in transfected cells; details: for EC50: read-out: potency of G protein activation at DOP
Procedure: as §4

[7] = target: T3, MOP receptor; assay: BRET-based G protein activation assay; assay type: cell-based; set-up: expressed in transfected cells
Procedure: as §4

[8] = target: T1, KOP receptor; assay: BRET-based arrestin3 recruitment assay; assay type: cell-based; set-up: host or cells: HEK293T; details: hKOP-RLuc8 with arrestin3-mVenus; read-out: potency of arrestin3 recruitment at hKOP
From the text: as §3
BRET was performed as described (Guo et al., 2008). Briefly, two days after transfection, cells were harvested, washed, and re-suspended in a phosphate-buffered saline (PBS) solution. Approximately 200,000 cells/well were distributed in 96-well plates, and 5 μM coelenterazine H (luciferase substrate) was added to each well. Five minutes after the addition of coelenterazine H, ligands were added to each well, and after 2 minutes for G protein activation or 5 minutes for arrestin recruitment, the BRET signal was determined by quantifying and calculating the ratio of the light emitted by mVenus, the energy acceptor (510-540 nm), over that emitted by RLuc8, the energy donor (485 nm). The drug-induced BRET signal was normalized, taking the Emax of the ethylketocyclazocine (EKC)-induced response as 100%. […]

| SMILES | bias toward G protein activation over arrestin [1] | Ki [2] | Ki [3] | Ki [4] | inhibition of 3H-diprenorphine binding [4] | agonistic activity at hKOP (G protein activation), in words [5] | other results |
| --- | --- | --- | --- | --- | --- | --- | --- |
| CC[C@]12CCN(CC3CC3)[C@H](C(=O)c3ccc(O)cc31)[C@@H]2C [EKC, ethylketocyclazocine] | non-biased |  |  |  |  |  |  |
| C[C@H]1[C@H]2Cc3ccc(O)cc3[C@]1(C)CCN2CC1CC1 [cyclazocine] | showed bias toward G protein activation over arrestin; also recorded: biased toward G protein activation |  |  |  |  |  |  |
| O=C(N[C@@H]1CC[C@@]2(O)C3Cc4ccc(O)c5c4[C@@]2(CCN3CC2CC2)[C@H]1O5)c1ccc2ccccc2c1 [NNTA] | non-biased |  |  |  |  |  |  |
| O=C(Nc1cccc(-n2cccn2)c1)C1CCCN1Cc1c[nH]cn1 (centres unmarked) [MCKK-4] |  | 641 ± 192 µM | 906 ± 836 µM | 292 ± 209 µM | partially but significantly inhibited | None of the other molecules, MCKK-4, MCKK-5 and MCKK-13, significantly activated GoB |  |
| O=C(CN1CCC[C@@H]1C(=O)Nc1nccs1)Nc1cccc(F)c1 [MCKK-17R, (R)-1-(2-(3-fluorophenylamino)-2-oxoethyl)-N-(thiazol-2-yl)pyrrolidine-2-carboxamide] |  | 286 µM | 508 µM | 2900 µM |  |  | agonistic activity at DOP (G protein activation), in words [6]: most active enantiomer at the DOP receptor; EC50 [6]: > 1000 µM; agonistic activity at MOP (G protein activation), in words [7]: Neither the racemic nor the MCKK-17 stereoisomers displayed significant activity; EC50 [8]: > 1000 µM; EC50 [5]: 115 ± 9 µM |
| O=S1(=O)CCC(NCc2cccc(OCCn3ccnc3)c2)C1 (centres unmarked) [MCKK-13] |  | 300 ± 99 µM | > 10000 µM | 453 ± 27 µM | partially but significantly inhibited | None of the other molecules, MCKK-4, MCKK-5 and MCKK-13, significantly activated GoB |  |
| Oc1ccc2c(c1)[C@@]13CCCC[C@@]1(O)[C@@H](C2)N(CC1CCC1)CC3 [butorphanol] | showed bias toward G protein activation over arrestin |  |  |  |  |  |  |
| O=C(CN1CCC[C@H]1C(=O)Nc1nccs1)Nc1cccc(F)c1 [MCKK-17S, (S)-1-(2-(3-fluorophenylamino)-2-oxoethyl)-N-(thiazol-2-yl)pyrrolidine-2-carboxamide] | not biased toward G protein activation over arrestin | > 10000 µM | > 10000 µM | 123 ± 38 µM |  | full agonism relative to EKC; also recorded: more active stereoisomer | agonistic activity at DOP (G protein activation), in words [6]: did not significantly activate the DOP receptor; EC50 [6]: > 1000 µM; agonistic activity at MOP (G protein activation), in words [7]: Neither the racemic nor the MCKK-17 stereoisomers displayed significant activity; EC50 [8]: 123 ± 47 µM; selectivity for hKOP over DOP and MOP receptors (binding affinity) [4]: exhibited selectivity for the hKOP receptor; selectivity for hKOP relative to MOP and DOP receptors (G protein activation) [5]: selective for hKOP relative to MOP and DOP receptors; EC50 [5]: 7.2 ± 3.8 µM |
| CN(CC(=O)NC1CCN(Cc2ccccc2)C1)Cc1ccco1 (centres unmarked) [MCKK-5] |  | 179 ± 187 µM | 428 ± 137 µM | 134 ± 81 µM | partially but significantly inhibited | None of the other molecules, MCKK-4, MCKK-5 and MCKK-13, significantly activated GoB |  |
| CN1CC[C@]23CCCC[C@H]2[C@H]1Cc1ccc(O)cc13 [levorphanol] | showed bias toward G protein activation over arrestin |  |  |  |  |  |  |
| O=C(CN1CCCC1C(=O)Nc1nccs1)Nc1cccc(F)c1 (racemic) [MCKK-17, 1-(2-(3-fluorophenylamino)-2-oxoethyl)-N-(thiazol-2-yl)pyrrolidine-2-carboxamide] |  |  |  |  | partially but significantly inhibited | exhibited agonistic activity | EC50 [6]: > 1000 µM; agonistic activity at MOP (G protein activation), in words [7]: Neither the racemic nor the MCKK-17 stereoisomers displayed significant activity; EC50 [8]: 164 ± 38 µM; inhibition of 3H-diprenorphine binding ([4]; listed as MCKK-17(R/S)): significantly inhibited; EC50 [5]: 8.3 ± 4 µM |
